Measured values as given in PMC7358525, “Characterization of PF-6142, a Novel, Non-Catecholamine Dopamine Receptor D1 Agonist, in Murine and Nonhuman Primate Models of Dopaminergic Activation” (Frontiers in Pharmacology, 2020).

Key:
[1] = Plasma exposure (PK), mouse; format: in vivo; conditions: 5.6 mg/kg SC, 1 h
Method: Across the set of experiments, PK was either collected from satellite animals or in separate, dedicated studies. In addition to plasma PK, exposures were obtained in brain tissue for rat and mouse, and plasma protein binding and brain tissue binding were measured. Using the measured exposures, partitioning, and binding parameters, and the […]

[2] = system: ketamine-induced working memory deficits; experiment: Ketamine-disrupted radial arm maze (RAM); format: in vivo, rat; conditions: 0.01, 0.056, 0.178, 0.56 mg/kg s.c., 90 min before ketamine 10 mg/kg
Excerpt: Two cohorts of adult male Long-Evans rats (N=30 each) were trained in a spatial working memory task on an eight-arm RAM, (Pathfinder Maze System, Lafayette Instrument Co., Lafayette, IN), using a procedure adapted from [Ward et al. (1990)] and described in detail in [Strick et al. (2011)]. Briefly, rats were food-restricted to provide motivation to perform the RAM task. The task requires that the animals enter each arm to retrieve a reinforcement food pellets, using spatial cues in the room to remember which arms of the maze they have previously entered. Rats were individually placed on the maze and allowed to navigate until all eight arms were entered and the pellets were consumed or until 30 choices were made, or until 5 min had elapsed. Entry into an arm previously entered was counted as an error. […] Training continued until all animals had reached the training criterion, defined as two or fewer errors on two consecutive days. […] Performance on the maze was evaluated 30 min later by an observer that was blinded to treatments.
The R 3.0.1 statistical software was used to compare the error rate data. The effects of treatment and the interaction on the error rate were assessed using a one-way mixed model ANOVA using generalized least squares method from lme4 library. […]

[3] = system: MK-801-disrupted paired-pulse facilitation; experiment: Paired-pulse facilitation (PPF), CA1/subiculum to mPFC, urethane-anesthetized rat; format: in vivo
Method: Experiments were performed on n=10 adult male Sprague-Dawley rats (275–305 g) under urethane anesthesia (1.5 g/kg, i.p.). The femoral vein was cannulated for i.v. administration of drugs. A stimulation electrode was placed in the CA1/subiculum region (coordinates: A-P = +6.3 mm, M–L = +5.2 mm, D-V = +8.0 mm) using stereotactic methods and unilateral local field potential (LFP) was recorded by a metal monopolar macroelectrode placed into the medial PFC (mPFC; coordinates: A-P = +3.0 mm, M-L = +0.6 mm, D-V = +5.0 mm). […] Evoked responses to the first and the second stimuli were identified (P1 and P2, respectively) and the amount of PPF determined by the formula: (P2 amplitude/P1 amplitude). Waveform averages used to calculate PPF consisted of 60 consecutive stimuli. Five minutes were allowed between administration of each drug dose and the starting of the subsequent average of each 10-min period after each cumulative dose (0.1–1 mg/kg, IV). Disruption in power of LFP delta activity was measured as the percentage of power in low frequency (0–1.8 Hz) irregular activity in the total (0–4 Hz) delta power range. LFP power spectra were determined during periods concurrent with waveform averages and PPF calculation. Statistical significance was determined by means of two-tailed paired Student’s t-test.

Cc1cc(Oc2nccc3occc23)ccc1-c1c(C)ncc2nccn12 [PF-6142]
PF-6142 plasma concentration [1]: 332 ng/mL
ketamine-induced error rate in RAM [2]: decreased the ketamine-induced error rate at all, except for the lowest dose administered
PPF values vs MK-801 challenge ([3]; PF-6142 1.0 mg/kg IV cumulative (p=0.006)): significantly higher PPF values
effect on MK-801-induced changes in PPF after SCH-23390 pretreatment ([3]; PF-6142 1.0-3.0 mg/kg IV cumulative (3 mg/kg: p=0.89)): no significant effect
ED50 for reversal of MK-801-induced effects on PPF ([3]; cumulative IV, Spearman-Karber, 95% confidence levels 0.21-0.57 mg/kg, n=5): 0.35 mg/kg
